Experimental data as given in US20050004186A1, “MEK inhibiting compounds” (Pfizer Inc, priority 2002, published 2005).

Legend:
[1] = system: MEK; assay: Cellular assay for measuring MEK inhibition, C26ELSA (pERK ELISA format in C26 cells); format: cell-based, murine; settings: for IC50: murine colon 26 (C26) carcinoma cells, one hour at 37 C
Procedure: Cellular Assay for Measuring MEK Inhibition
MEK inhibitors were evaluated by determining their ability to inhibit phosphorylation of MAP kinase (ERK) in murine colon 26 (C26) carcinoma cells. Since ERK1 and ERK2 represent the only known substrates for MEK1 and MEK2, the measurement of inhibition of ERK phosphorylation in cells provides direct read out of cellular MEK inhibition by the compounds of the invention. Detection of phosphorylation of ERK was carried out either by Western blot or ELISA format. Briefly, the assays involve treatment of exponentially growing C26 cells with varying concentrations of the test compound (or vehicle control) for one hour at 37≡ C. For Western blot assay, cells were rinsed free of compound/vehicle and lysed in a solution containing 70 mM NaCl, 50 mM glycerol phosphate, 10 mM HEPES, […], 1% Triton X-100, 1 mM Na3VO4, 100 μM PMSF, 10 μM leupeptin and 10 μM pepstatin. Supernatants were then subjected to gel electrophoresis and hybridized to a primary antibody recognizing dually phosphorylated ERK1 and ERK2. To evaluate total MAPK levels, blots were subsequently ‘stripped’ and re-probed with a 1:1 mixture of polyclonal antibodies recognizing unphosphorylated ERK1 and ERK2. For pERK ELISA assay, pERK TiterZyme Enzyme immunometric Assay kits were acquired from Assay Designs, Inc (Ann Arbor, Mich.). Briefly, cells were harvested in lysis solution containing 50 mM β-glycerophosphate, 10 mM HEPES, pH7.4, 70 mM NaCl, 2 mM EDTA and 1% SDS and protein lysates were diluted 1:15 with supplied Assay buffer prior to the execution of the assay. The subsequent steps were carried out essentially as recommended by the manufacturer.

| Structure (SMILES) | IC50 [1] [nM] | melting point | C26ELSA % Inhibition @ 5 μM ([1]; C26 cells) [%] | C26ELSA % Inhib @ 0.5 μM ([1]; 0.5 μM, C26 cells) [%] |
| --- | --- | --- | --- | --- |
| C#Cc1ccc(Nc2c(-c3nnc(NCCN4CCOCC4)o3)ccc(F)c2F)c(F)c1 [Example 148, {5-[2-(4-Ethynyl-2-fluoro-phenylamino)-3,4-difluoro-phenyl]-[1,3,4]oxadiazol-2-yl}-(2-morpholin-4-yl-ethyl)-amine] | 63 | 146 to 148 °C |  |  |
| OC[C@H](O)CNc1nnc(-c2ccc(F)c(F)c2Nc2ccc(I)cc2F)o1 [Example 150, 3-{5-[3,4-Difluoro-2-(2-fluoro-4-iodo-phenylamino)-phenyl]-[1,3,4]oxadiazol-2-ylamino}-propane-1,2 (R)-diol] | 92 | 174 to 176 °C |  |  |
| C#Cc1ccc(Nc2c(-c3nnc(NCCO)o3)ccc(F)c2F)c(F)c1 [Example 140, 2-{5-[2-(4-Ethynyl-2-fluoro-phenylamino)-3,4-difluoro-phenyl]-[1,3,4]oxadiazol-2-ylamino}-ethanol] | 3 | 115.9 to 116.5 °C |  |  |
| CCc1ccc(Nc2c(-c3nnc(CCCN4CCOCC4)o3)ccc(F)c2F)c(F)c1 [Example 146, {2,3-Difluoro-6-[5-(3-morpholin-4-yl-propyl)-[1,3,4]oxadiazol-2-yl]-phenyl}-(4-ethyl-2-fluoro-phenyl)-amine] |  |  | 6 |  |
| CCc1nnc(-c2ccc(F)c(F)c2Nc2ccc(I)cc2F)o1 [Example 143, [6-(5-Ethyl-[1,3,4]oxadiazol-2-yl)-2,3-difluoro-phenyl]-(2-fluoro-4-iodo-phenyl)-amine] |  | 97 to 98 °C | 88 |  |
| OCCc1ccc(Nc2c(-c3nnc(NCCN4CCOCC4)o3)ccc(F)c2F)c(F)c1 [Example 157, 2-(4-{2,3-difluoro-6-[5-(2-morpholin-4-yl-ethylamino)-[1,3,4]oxadiazol-2-yl]-phenylamino}-3-fluoro-phenyl)-ethanol] |  |  | 33 | 31 |
| OCCCc1ccc(Nc2c(-c3nnc(NCCN4CCOCC4)o3)ccc(F)c2F)c(F)c1 [Example 147, 3-(4-{2,3-Difluoro-6-[5-(2-morpholin-4-yl-ethylamino)-[1,3,4]oxadiazol-2-yl]-phenylamino}-3-fluoro-phenyl)-propan-1-ol] | 34000 | 102 to 106 °C |  |  |

The next lines start with results.

| IC50 [1] [nM] | melting point | Structure (SMILES) | C26ELSA % Inhibition @ 5 μM ([1]; C26 cells) [%] | C26ELSA % Inhib @ 0.5 μM ([1]; 0.5 μM, C26 cells) [%] |
| --- | --- | --- | --- | --- |
| 2400 | 150 to 152 °C (dec.) | CCc1ccc(Nc2c(-c3nnc(NC[C@@H](O)CO)o3)ccc(F)c2F)c(F)c1 [Example 152, 3-{5-[2-(4-Ethyl-2-fluoro-phenylamino)-3,4-difluoro-phenyl]-[1,3,4]oxadiazol-2-ylamino}-propane-1,2(R)-diol] |  |  |
| 110 | 110 to 114 °C (dec.) | OCC(CO)Nc1nnc(-c2ccc(F)c(F)c2Nc2ccc(I)cc2F)o1 [Example 154, 2-{5-[3,4-Difluoro-2-(2-fluoro-4-iodo-phenylamino)-phenyl]-[1,3,4]oxadiazol-2-ylamino}-propane-1,3-diol] |  |  |
| 5100 |  | OCCNc1nnc(-c2ccc(F)c(F)c2Nc2ccc(CCO)cc2F)o1 [Example 169, 2-(5-{3,4-difluoro-2-[2-fluoro-4-(2-hydroxy-ethyl)phenylamino]-phenyl}-[1,3,4]oxadiazol-2-ylamino)ethanol] |  |  |
| 710 | 174 to 177 °C | C=Cc1ccc(Nc2c(-c3nnc(NCCN4CCOCC4)o3)ccc(F)c2F)c(F)c1 [Example 156, {5-[3,4-Difluoro-2-(2-fluoro-4-vinyl-phenylamino)-phenyl]-[1,3,4]oxadiazol-2-yl}-(2-morpholin-4-yl-ethyl)-amine] |  |  |
